Where two headings read alike, the source gives them in different places. Each block holds one compound with its values, some of them ahead of it.
Key:
HDACs in MV-3 cells = assay: HDAC whole cell inhibition assay; details: Homo sapiens, MV-3, light or radiation study, 18 h, read-out: whole-cell HDAC inhibition EC50, MV-3
Description: (§2) Furthermore, we determined the EC50 values in the nontumorigenic cell line HEK293 and in the hematological cancer cell line MM.1S.
(§3) For this purpose, 3-fold serial dilutions of test compounds (DMSO) were prepared and added at a volume of 0.5 μL to the cells. […] MAL was used in a final concentration of 0.3 mM in the respective cell culture medium with 0.5% IGEPAL CA-630 (Catalog# J61055, Alfa Aesar). […] The obtained data were normalized to vehicle treated cells, considering 100% enzyme activity. IC50 values were determined by generating dose–response curves using the four-parameter logistic equation (GraphPad Prism 8.0, San Diego, USA).

[1] = tested on: Ac-histone H3 (class I HDACs); assay: Immunoblot analysis of MV-3 cell lysates incl. wash out; assay type: cell-based, human; details: for histone H3 acetylation after wash out (immunoblot): MV-3, 5 μM for 48 h, then up to 6 h without inhibitor; for acetylation level of histone H3 (immunoblot): MV-3, 5 μM, 24–72 h, substantial increase after 72 h
Description: The impact on the acetylation levels of the HDAC substrates Ac-histone H3 (class I HDACs) and Ac-α-tubulin (HDAC6) was analyzed by immunoblot analysis.
6 Immunoblot analysis of MV-3 cell lysates. […] Representative images from at least three replicates are shown. DMSO (0.025%) was used as vehicle control and GAPDH as loading control.
After that, cells were treated with a concentration of 5 μM of HDAC inhibitor or vehicle (DMSO) for additional 24 h, 48 h or 72 h. For cell lysis the cells were initially washed with PBS and detached using a scraper. The cells were then centrifuged at 1200 rpm for 4 min at 4 °C, followed by two additional washing steps. After that, the cell pellet was resuspended in 100 μL of freshly prepared lysis buffer and incubated on ice for 30 min with vortexing every 10 min. The lysis buffer consisted of Invitrogen cell extraction buffer (10 mM Tris, pH 7.4, 100 mM NaCl, […], […], 1 mM NaF, 20 mM Na4P2O7, 2 mM Na3VO4, 1% Triton × −100, 10% glycerol, 0.1% SDS, 0.5% deoxycholate; Catalog# FNN0011, Thermo Fisher Scientific Inc., Waltham, MA, USA), supplemented with 0.1 mM PMSF (Catalog# 10837091001, Sigma-Aldrich, St. Louis, MO, USA) and Halt Protease Inhibitor (100×) (Catalog# 78429, Life Technologies GmbH Carlsbad, CA, USA). Finally, the samples were centrifuged at 14,000 rpm and 4 °C for 30 min and the supernatant was collected. Protein quantification was performed by using BCA protein assay reagents (Catalog# 23225, Thermo Fisher Scientific Inc., Waltham, MA, USA). Lysates were mixed with Laemmli sample buffer 2× concentrate (Catalog# S3401-10VL, Sigma-Aldrich, St. Louis, MO, USA) to a protein concentration of 1.25 μg/μL and denatured at 95 °C for 5 min. Subsequently, SDS-PAGE was performed with 2–20% Mini-PROTEAN TGX stain-free gels (Catalog# 456809, Bio-Rad, Hercules, CA, USA) at 200 V for 45 min. Proteins were then transferred to a Trans-Blot Turbo-PVDF membrane (Catalog# 1704156, Bio-Rad, Hercules, CA, USA) with the Trans-Blot Turbo Transfer System (Catalog# 1704150, Bio-Rad, Hercules, CA, USA) at 25 V for 5 min. The membrane was blocked with a solution of 5% milk powder in TBST (Tris-buffered saline-Tween 20 0.2%) for 60 min at room temperature. After three washing cycles for 10 min with TBST, the membrane was incubated with the respective antibody and a mouse anti-GAPDH antibody (Catalog# T0004, Affinity Biosciences, Cincinnati, OH, USA; 1:20,000 dilution) at room temperature for 60 min and 4 °C overnight. […] After washing off the secondary antibody, protein bands were detected via chemiluminescence using Clarity Western ECL substrate (Catalog# 1705061, Bio-Rad, Hercules, CA, USA). […]

MV-3 cells = assay: MTT cell viability (antiproliferative) assay; assay type: cell-based, human; details: for EC50: Homo sapiens, read-out: MV-3 EC50 (MTT); for viability reduction, MV-3 (MTT): at 15 μM, 72 h
Description: (§1) To evaluate the cytotoxicity of the selected HDAC inhibitors, compounds were tested for their antiproliferative activity against MV-3 and MDA-MB-231 cells using the MTT assay. […] MTT (3-(4,5-dimethylthiazol-2-yl)-2,5-diphenyltetrazolium bromide; Catalog# A2231; BioChemica, Applichem GmbH, Darmstadt, Germany) was utilized to measure the antiproliferative effect. Depending on the incubation time, 3000 MV-3 cells (72 h), 2000 MV-3 cells (96 h) or 1000 MV-3 cells (120 h) per well were seeded in 96-well plates (Starlab GmbH, Hamburg, Germany) with each well containing 199 μL of volume. […] Next, predilutions of the test compounds were prepared in DMSO. […] Subsequently, cells were treated with 1.0 μL of the dilution series of the test compounds. […] After removing the supernatant, formazan was solubilized in 200.0 μL DMSO. The absorbance was measured at 570 nm with background subtraction at 690 nm using a Multiskan microplate photometer (Thermo Fisher Scientific, Waltham, MA, USA). The obtained data were normalized to PBS, considering 100% viability.

HDACs in HEK293 cells = assay: HDAC whole cell inhibition assay; details: Homo sapiens, HEK293, read-out: whole-cell HDAC inhibition EC50, HEK293
Description: as §2, §3

HDACs in MM.1S cells = assay: HDAC whole cell inhibition assay; details: Homo sapiens, MM1.S, read-out: whole-cell HDAC inhibition EC50, MM.1S
Description: as §2, §3

Ac-α-tubulin (HDAC6) = assay: Immunoblot analysis of MV-3 cell lysates; assay type: cell-based, human; details: MV-3, 5 μM, 24–72 h
Description: After that, cells were treated with a concentration of 5 μM of HDAC inhibitor or vehicle (DMSO) for additional 24 h, 48 h or 72 h. For cell lysis the cells were initially washed with PBS and detached using a scraper. The cells were then centrifuged at 1200 rpm for 4 min at 4 °C, followed by two additional washing steps. After that, the cell pellet was resuspended in 100 μL of freshly prepared lysis buffer and incubated on ice for 30 min with vortexing every 10 min. […] Finally, the samples were centrifuged at 14,000 rpm and 4 °C for 30 min and the supernatant was collected. […] The membrane was blocked with a solution of 5% milk powder in TBST (Tris-buffered saline-Tween 20 0.2%) for 60 min at room temperature. After three washing cycles for 10 min with TBST, the membrane was incubated with the respective antibody and a mouse anti-GAPDH antibody (Catalog# T0004, Affinity Biosciences, Cincinnati, OH, USA; 1:20,000 dilution) at room temperature for 60 min and 4 °C overnight. […] Membrane was rinsed again three times before applying the secondary antibody for 1.5 h at room temperature.

MDA-MB-231 cells [2] = assay: MTT cell viability (antiproliferative) assay; assay type: cell-based; details: Homo sapiens
Description: as §1

MDA-MB-231 cells [3] = assay: Annexin V/PI apoptosis assay; details: MDA-MB-231, 10 μM, 48 h
Description: Cells were stained with annexin V and propidium iodide (PI). (A) Data represents the mean ± SD of at least three individual experiments. Significances were determined by one-way ANOVA followed by Dunnett’s multiple comparisons test and are indicated by asterisks (*P ≤ 0.05, **P ≤ 0.01, ***P ≤ 0.001).
After the incubation period, cells were collected and washed with cell staining buffer (HEPES 0.1 M, NaCl 1.4 M, CaCl2 × 3 H2O 25 mM). […] Data was evaluated with GraphPad Prism 8 (GraphPad Software, San Diego, CA, USA).

[4] = MV-3, light or radiation study, incubation time 120 h, no irradiation
[5] = MDA-MB-231, light or radiation study, incubation time 120 h, no irradiation
[6] = MDA-MB-231, incubation time 96 h

Compound: CC(=O)Nc1ccc(C(=O)Nc2cc(-c3cccs3)ccc2N)cc1 [Cpd-60, reference compound]
EC50 (HDACs in MV-3 cells): 97 ± 26 nM
histone H3 acetylation after wash out (immunoblot) [1]: persistent histone H3 acetylation
acetylation level of histone H3 (immunoblot) [1]: hyperacetylation of histone H3
EC50 (MV-3 cells; [4]): 370 ± 40 nM
EC50 (MV-3 cells; MV-3, incubation time 96 h): 2340 ± 790 nM
viability reduction, MV-3 (MTT) (MV-3 cells): < 25%
EC50 (HDACs in HEK293 cells): 178 ± 23 nM
EC50 (HDACs in MM.1S cells): 111 ± 38 nM
acetylation level of α-tubulin (immunoblot) (Ac-α-tubulin (HDAC6)): absence of HDAC6 inhibition
EC50 (MDA-MB-231 cells [2]; [5]): 890 ± 250 nM
EC50 (MDA-MB-231 cells [2]; [6]): 3210 ± 1010 nM
apoptosis induction (annexin V/PI) (MDA-MB-231 cells [3]): significantly induced apoptosis

EC50 (HDACs in MV-3 cells): 311 ± 47 nM
EC50 (HDACs in MM.1S cells): 637 ± 158 nM
EC50 (MDA-MB-231 cells [2]; [5]): 4870 ± 860 nM
EC50 (MDA-MB-231 cells [2]; [6]): 13900 ± 3400 nM
Compound: CC(=O)Nc1ccc(C(=O)Nc2cc(-c3ccccc3)ccc2O)cc1 [ST13, 4-Acetamido-N-(4-hydroxy-[1,1′-biphenyl]-3-yl)-benzamide]
histone H3 acetylation after wash out (immunoblot) [1]: persistent histone H3 acetylation
acetylation level of histone H3 (immunoblot) [1]: hyperacetylation of histone H3
EC50 (MV-3 cells; [4]): 2770 ± 880 nM
EC50 (MV-3 cells; MV-3, incubation time 96 h): 7940 ± 1360 nM
viability reduction, MV-3 (MTT) (MV-3 cells): < 25%
EC50 (HDACs in HEK293 cells): 333 ± 64 nM
acetylation level of α-tubulin (immunoblot) (Ac-α-tubulin (HDAC6)): absence of HDAC6 inhibition
apoptosis induction (annexin V/PI) (MDA-MB-231 cells [3]): significantly induced apoptosis

Reference: publication PMC12706802, “Ortho-Hydroxyanilides: Slow-Acting, Selective Histone Deacetylase 1/2 Inhibitors Suitable for Photocaging Applications” (ACS Pharmacology & Translational Science, 2025)
